For one test, the system named is Pectinase (EC 3.2.1.15). As to the kind of experiment: Pectinase/Pectin reaction gas run (spectrophotometric, 400 nm). The test is classed as biochemical, Aspergillus niger. Conditions: maximum effect, percent change compared to air. The method, then:
PECTINASE (EC 3.2.1.15) (P-9932)/PECTIN (P-9135) GAS RUN PROTOCOL
PURPOSE: Effect of Air, Ne, Ar, Kr, Xe, N2 and O2 on Pectinase/Pectin reaction at 10° C., 25° C. and 35° C. (one substrate concentration).
ENZYME: Pectinase (Sigma No. P-9932) from Aspergillus niger Solution in 25-45% glycerol (actual glycerol content on label)
Unit Definition: one unit will liberate 1.0 μmole of galacturonic acid from polygalacturonic acid per min at pH 4.0 at 25° C.
SUBSTRATE: Pectin (Sigma No. P-9135) from Citrus fruits
Soln A: 0.1 M Citric acid--sodium citrate, pH 4.0 at 25° C. Dissolve 7.6 g citric acid and 12.05 g sodium citrate in 1 liter of DI H2 O. Adjust pH to 4.0. pH25° C. =4.013
Soln B: 1% Pectin in DI H2 O Boil 100 ml DI H2 O. Add 1 g pectin, stir by hand. Cover, boil for 2 minutes, stir by hand, boil for an additional 1 minute. Remove from heat and let cool for 10 minutes.
Soln C: Pectinase (50 U/ml) in Soln A Dilute 43.5 ml Pectinase to 50 ml with Soln A. Store in an amber bottle and refrigerate.
R=2.0 ml Soln B+0.5 ml Soln A
Fill the cuvettes with 2.0 ml of Soln B with a 1 cc syringe.
Fill 8 serum vials with 5.0 ml of Soln C Stopper and crimp to effect a gas tight system.
(§1) Bubble 4×30 cc of the appropriate gas in T1G1 . . . 5 cuvettes. Refrigerate under 2×10 cc of the appropriate gas. Keep refrigerated at least 15 minutes before running.
Remove G1 . . . 5 serum vials from fridge. Sample Soln C with 1 cc syringes previously filled with the appropriate gas. Slide the syringes/needle through the silicone but not into the liquid layer, simultaneously push plungers into the liquid and push the plungers simultaneously, THEN IT WILL BE NECESSARY TO PULL AND PUSH PLUNGER FOUR TIMES TO EFFECT MIXING OF THE SUBSTRATE AND ENZYME IN THE CUVETTES, run timedrives.
(§2) Bubble 4×30 cc of the appropriate gas in T2G1 . . . 5 cuvettes. Refrigerate under 2×10 cc of the appropriate gas. Keep refrigerated at least 15 minutes before running.
(§3) Bubble 4×30 cc of the appropriate gas in T3G1 . . . 5 cuvettes. Refrigerate under 2×10 cc of the appropriate gas. Keep refrigerated at least 15 minutes before running.

For test [1], the system named is Pectinesterase (EC 3.1.1.11). As to the kind of experiment: Pectinesterase/p-Nitrophenyl acetate reaction gas run (spectrophotometric, 400 nm). It is filed as biochemical, Orange Peel. Conditions: maximum effect, percent change compared to air. The method, then: PECTINESTERASE (P-5400)/p-NITROPHENYL ACETATE (N-8130) GAS RUN PROTOCOL
PURPOSE: Effect of Air, Ne, Ar, Kr, Xe, N2 and 02 on Pectinesterase/p-Nitrophenyl acetate reaction at 10° C., 25° C. and 35° C. (one substrate concentration).
ENZYME: Pectinesterase P-5400
Unit definition: one unit will release 1 μequivalent of acid from pectin per min at pH 7.5 at 30° C.
SUBSTRATE: p-Nitrophenyl acetate N-8130
Soln A: 0.1 M Citric acid--Na2 HPO4 buffer, pH 7.5 25° C.
Soln B: 50 mM Methanolic p-Nitrophenyl acetate (N-8130)
Soln C: p-Nitrophenyl acetate in Soln A
Soln D: Pectinesterase (100 Units/ml) in Soln A
R=2.0 ml Soln C+0.5 ml Soln A
Fill the cuvettes with 2.0 ml of Soln C with a 1 cc syringe.
Fill 8 serum vials with 5.0 ml of Soln D. Stopper and crimp to effect a gas tight system.
as §1
Remove G1 . . . 5 serum vials from fridge. Sample Soln D with 1 cc syringes previously filled with the appropriate gas. Slide the syringes/needle through the silicone but not into the liquid layer, simultaneously push plungers into the liquid and push the plungers simultaneously, run timedrives.
as §2, §3

In the case of `[Ne]` [Ne, neon], the “Pectinase % Rate Difference” value in the test with Pectinase (EC 3.2.1.15) (25° C.) was 4.3%; with Pectinase (EC 3.2.1.15) (35° C.), 3.3%. In addition, the “Pectinase % Yield Difference” value with Pectinase (EC 3.2.1.15) (35° C.) was 3.3%. Besides, the “Pectinesterase % Rate Difference” value in test [1] (10° C.) came to 19.4%; in test [1] (25° C.) it was 0.0%; in test [1] (35° C.), 1.6%. For the same compound, the “Pectinesterase % Yield Difference” value is listed as 0.37% in test [1] (25° C.) and 1.4% in test [1] (35° C.).
Take `[Kr]` [Kr, krypton]: the figures for the “Pectinase % Rate Difference” value in the test with Pectinase (EC 3.2.1.15) (25° C.) and in the test on Pectinase (EC 3.2.1.15) (35° C.) were 2.1% and 6.7%, respectively. In addition, the “Pectinase % Yield Difference” value in the test on Pectinase (EC 3.2.1.15) (35° C.) came out at 1.4%. Moreover, the entries for the “Pectinesterase % Rate Difference” value in test [1] (10° C.), in test [1] (25° C.) and in test [1] (35° C.) were 32.3%, 29.4% and 0.8%, respectively. Besides, the “Pectinesterase % Yield Difference” value in test [1] (25° C.) was 8.3%; in test [1] (35° C.) it was 2.1%.
With `[Xe]` [Xe, xenon], the “Pectinase % Rate Difference” value is on record as 0.0% in the test with Pectinase (EC 3.2.1.15) (25° C.) and 15.0% in the test on Pectinase (EC 3.2.1.15) (35° C.). Moreover, the “Pectinase % Yield Difference” value with Pectinase (EC 3.2.1.15) (35° C.) came out at 7.0%. Moreover, the “Pectinesterase % Rate Difference” value in test [1] (10° C.) stood at 29.0%; in test [1] (25° C.), 2.0%; in test [1] (35° C.) it was 3.3%. For the same compound, the “Pectinesterase % Yield Difference” value in test [1] (25° C.) is on record as 0.70%; in test [1] (35° C.), 0.0%.
Regarding `[Ar]` [Ar, argon], the “Pectinase % Rate Difference” value worked out at 6.4% with Pectinase (EC 3.2.1.15) (25° C.) and 18.3% in the test with Pectinase (EC 3.2.1.15) (35° C.). Further, the “Pectinase % Yield Difference” value in the test on Pectinase (EC 3.2.1.15) (35° C.) amounted to 8.0%. Moreover, the “Pectinesterase % Rate Difference” value was 5.0% in test [1] (10° C.), 17.7% in test [1] (25° C.) and 0.8% in test [1] (35° C.). Moreover, the “Pectinesterase % Yield Difference” value was determined as 2.1% in test [1] (25° C.) and 0.70% in test [1] (35° C.).
